Reference: patent US20230340012A1, “NATURAL AND SYNTHETIC COMPOUNDS FOR TREATING CANCER AND OTHER DISEASES” (PACIFIC ARROW LIMITED, priority 2009, published 2023)
Values after ≈ are worked out from the molar mass of the structure shown.

Experiments:
H460 = assay: MTT assay, lung (H460); format: cell-based, human; settings: for IC50 of lung (H460): MTT
Experimental: (§1) Cells. HTB-9 (bladder), HeLa-S3 (cervix), DU145 (prostate), H460 (lung), MCF-7 (breast), K562 (leukemia), HCT116 (colon), HepG2 (liver), U2OS (bone), T98G (brain), SK-MEL-5 (Skin) and OVCAR 3, ES2 (ovary), Pancreas (Capan), Mouth (KB), Kidney(A498).
(§2) MTT Assay. The procedure for MTT assay followed the method described by Carmichael et al. (1987) with modifications. The cells were seeded into a 96-well plate at for 24 hours before drug-treatment. The cells were then exposed to the drugs for 48, 72, or 96 hours. After the drug-treatment, MTT (0.5 mg/mL) was added to cultures and incubated for an hour. The formazan (product of the reduction of tetrazolium by viable cells) formed and was dissolved with DMSO and the O.D. at 490 nm, and was measured by an ELISA reader. The MTT level of the cells before drug-treatment was also measured (T0). The % cell-growth (%G) is calculated as: %G = (TD-T0 / TC-T0) x 100(1), where TC or TD represents O.D. readings of control or drug-treated cells. When T0 > TD, then the cytotoxicity (LC) expressed as % of the control is calculated as: %LC = (TD-T0 / T0) × 100(2).
Methods: • A. Cells • -- H460 cells are derived from a Human Lung large cell carcinoma. Cells were grown in RPMI 1640 medium supplemented with 10% FCS, antibiotics and glutamine. 5000 cells were seeded in a well (96-welled plate) for one day before drug-treatment • B. Drug treatment: • -- Drug: Tig-S (stored as a 1000x stock solution in DMSO) was used. • -- Drug concentration used: from 0.15 - 20 ug/ml. • -- Drug-treatment was carried out for 1, 2 and 4 days. For the 4 days incubation, cells were fed with fresh medium (with drug) on day 2. • C. At the end of the drug-treatment, cytotoxic test was performed with MTT assay. Results: • 1. Tig-S inhibits H460 cells’ growth with the IC50 of drug 3 ug/ml. • 2. […] cells growth inhibition was observed beyond drug 5 ug/ml. • 3. No dead cell was found at drug concentration in 20 ug/ml.

K562 = assay: MTT assay, leukemia (K562); format: cell-based, human
Experimental: as §1, §2

WI38 = assay: MTT assay, normal human lung fibroblast (WI38); format: cell-based
Experimental: Method: A. Cells • -WI38 is a Normal Lung fibroblast. Cells were grown in MEM medium supplemented with 10% FCS, antibiotics and glutamine. 20 K cells were seeded per well (96-welled plate) for one day before drug-treatment • -ES2 is an Ovary Clear cells carcinoma. Cells were grown in RPMI-1640 medium supplemented with 10% FCS, antibiotics and glutamine. 10 K cells were seeded per well (96-welled plate) for one day before drug-treatment.
B. Drug treatment: • -Drug: Tig-S. stored as 1000x stock solution in DMSO. • -Drug concentration used: from 0.15 - 20 ug/ml. • -Drug-treatment was carried out for 2 days (ES2) or 6 days (WI38). For the 6 days incubation, cells were fed with fresh medium (with drug) on day 3 and 5.
C. At the end of the drug-treatment, cytotoxic test was performed with MTT assay.

Y79 (retinoblastoma) = assay: Inhibition of eye cancer cells Y79 (retinoblastoma), MTT; format: cell-based, human; settings: 2 days
Experimental: Cells: Human Eye cancer cells Y79 (retinoblastoma) are cultured in RPMI1640 medium supplemented with 20% FCS, glutamine and antibiotics.
Starting cells concentration: 400 K per ml in a 24-well plate.
Drug: Tig-S and Tig-R (100× stock solution in 10%DMSO-90% RPMI-1640).
Drug-treatment: Cells were cultured with or without drug (DMSO control) for 2 days. After Drug-treatment, the quantity of live cells is determined with MTT assay*. With this method, the percentage of cell growth with drugs was determined by comparing to those of no-drug (DMSO) control.
MTT assay. To measure the amount of live cells, MTT (3-[4,5-Dimethylthiazol-2-yl]-2,5-diphenyl-tetrazolium bromide) (0.5 mg/ml) was added to cultures and incubated for an hour. Cells were then collected by centrifugation. The formation of formazan (proportion to live cells activity) in the cells was dissolved with DMSO and the O.D. at 490 nm was measured by an ELISA reader. The MTT level of cells before drug-treatment (T0) and after the drug-treatment (TD) was measured. The % cell-growth (%G) is calculated as: %G = (TD-T0) / (TC-T0) × 100 where TC or TD represent O.D. readings of control or drug-treated cells.
When T0 > TD, then the negative growth (cytotoxicity) is expressed as - % of the control and is calculated as: - %G = (TD-T0) / T0) × 100.

Fibronectin = Fibronectin secretion experiment (Western blot); format: cell-based; settings: bladder, cervix, prostate, lung, breast, leukemia, colon, liver, bone, brain, skin, ovary, pancreas, mouth, kidney cells; 24 hours
Experimental: Western blot is applied in this invention as a method to detect the specific proteins in treated and untreated cells with compounds in this invention, wherein the cells are bladder, cervix, prostate, lung, breast, leukemia, colon, liver, bone, brain, Skin, ovary, Pancreas(Capan), Mouth(KB), Kidney.
Cells: targeted cells were grown in RPMI 1640 medium. 1.5 million cells were seeded in a T25 flask and grown for 24 hours before drug-treatment.
Drug-treatment: Cells cultures were replaced with fresh RPMI medium containing either 2.5 ul of DMSO (as control) [D]; or 10, 20, 30, 40, 80 ug/ml of tested compounds.
After 24 hours, aliquot of culture medium was taken out for Fibronectin determination (Western blot method).
Cell viability at 24 hours was determined by MTT assay. Cultures were replaced with RPMI medium (5 ml) with MTT and incubated for an hour. The formation of formazan was dissolved in 10 ml of DMSO and OD at 570 nm was measured (MTT units). Western Blot: Spent culture medium was mixed with SDS sample buffer, boiled for 3 minutes before loading to SDS gel. Samples were applied to a 6-10% SDS gel and electrophoresis was conducted with 100 volts for 2 hours. Protein was transferred to a nitrocellulose membrane electrophoretically. The nitrocellulose blot was incubated with the first antibody and second antibody (AP conjugated, Promega S3721). The immuno-bands were developed with BCIP/NBT color development system.
Determination of Western blot band intensity: The band-images of Western blot were captured with a digital camera and the intensity of bands was determined using “Image J” software.

Erythrocytes (RBC) = assay: The haemolytic assay
Experimental: Erythrocytes (RBC) were isolated from human blood (EDTA whole blood, collected randomly). 50 ul of the 10% RBC suspension (in PBS) was added to 2 ml of sample solutions (concentration range from 0.1 ug/ml to 400 ug/ml) in PBS. The mixture was vortexed briefly and sat for 60 min at room temperature. The mixture was spun at 3 K for 10 min and the relative amounts of lysed hemoglobin in the supernatant were measured at 540 nm.

Compound	IC50 of lung (H460) (H460) [µg/mL]	IC50 of leukemia (K562) (K562) [µg/mL]	IC50 in normal human fibroblast cells (WI38) (WI38; MTT) [µg/mL]	IC50, eye cancer Y79 retinoblastoma (Y79 (retinoblastoma)) [µg/mL]	inhibition of fibronectin secretion (Fibronectin)	hemolytic activity (Erythrocytes (RBC); in words, no concentration given)	hemolytic activity (Erythrocytes (RBC); up to 20 ug/ml)	IC50, lung H460 cells growth (H460; 4 days) [µg/mL]	IC50, H460 cells' growth (H460; Experiment 32, treatment 1, 2 and 4 days) [µg/mL]	dead cells, H460 (H460; at 20 ug/ml)	IC50, lung H460 cells growth (H460; one day) [µg/mL]	IC50, WI38 cells (WI38; 6 days drug treatment, MTT) [µg/mL]	% of the control cell growth, WI38 (WI38; at 10 ug/ml)	MTT OD as % of the original value, WI38 (WI38; at 20 ug/ml)	cell loss or death, WI38 (WI38; at 20 ug/ml)	cells died, WI38 (WI38; with 10 ug/ml) [%]
24,28-O-Tigloyl-3β,16α, 21β, 22a, 24β, 28-hexahydroxyolean-12-ene [Tig-R]	4.8	2	10 to 15	7.5	20-40%	no hemolytic activity	do not have hemolytic activity									
CC=C(C)C(=O)OCC1(C)C(O)CCC2(C)C1CCC1(C)C2CC=C2C3CC(C)(C)C(O)C(O)C3(CO)C(O)CC21C (stereo not drawn) [Tig-N]	13	6			20-40%		do not have hemolytic activity									
CC=C(C)C(=O)OCC1(C)C(O)CCC2(C)C1CCC1(C)C2CC=C2C3CC(C)(C)C(OC(=O)C(C)=CC)C(O)C3(CO)C(O)CC21C (stereo not drawn) [Tig-S]	5.6	4.3		0.1 (≈ 0.149 µM)	20-40%			3 (≈ 4.47 µM)	3 (≈ 4.47 µM)	No dead cell	3.4 (≈ 5.07 µM)	1.5 (≈ 2.24 µM)	about 55%	about 90%	about 10%	10
CC=C(C)C(=O)OCC1(C)C(O)CCC2(C)C1CCC1(C)C2CC=C2C3CC(C)(C)C(O)C(OC(=O)C(C)=CC)C3(COC(=O)C(C)=CC)C(O)CC21C (stereo not drawn) [Tig-T]	21	9			20-40%											
